Laboratory results reported in patent publication US20210023099A1, “COMBINATION THERAPY WITH A BET INHIBITOR AND A PROTEASOME INHIBITOR” (Hoffmann-La Roche Inc., priority 2018, published 2021).
Several values for one entry are separate records, joined by “and”; a condition that tells them apart may be missing. Equal entries are not always repeated.

What was measured:
MM1S MM xenografts = experiment: In vivo antitumor efficacy against MM1S MM xenografts; conditions: Day 28, s.c. MM1s xenografts in female CIEA NOG mice, bortezomib 0.5 mg/kg iv 2 x Q7D; for Tumor Regression % / TGI % (Tumor growth inhibition): RG6146 30 mg/kg ip QD D14-28; for TGI % (Tumor growth inhibition): vs control; for npTCR (non-parametric Treatment to Control Ratio): RG6146 30 mg/kg ip QD, CI printed in the line below
Procedure: The in vivo antitumor efficacy of BET inhibitor RG6146 in combination with proteasome inhibitor bortezomib was evaluated against MM1S MM xenografts.
(§1) The original MM1s human Multiple Myeloma cell line (MM) was purchased from ATCC (Manassas, Va., USA). Expansion of tumor cells for the transplantation was done by the TAP CompacT CellBase Cell Culture Roboter according to the protocol. Tumor cell line was routinely cultured in RPMI 1640 medium, FCS 10% and L-Glutamin 2 mM at 37° C. in a water-saturated atmosphere at 5% CO2. Culture passage was performed with trypsin/EDTA 1× splitting twice/week and passage 2 used for transplantation.
(§2) Female CIEA NOG mice (Taconic), age 5-6 weeks at arrival, maintained under specific-pathogen-free condition with daily cycles of 12 h light/12 h darkness according to committed guidelines. Experimental study protocol was reviewed and approved by local government. After arrival animals were maintained in animal facility for one week to get accustomed to new environment and for observation. Continuous health monitoring was carried out on regular basis. Diet food and autoclaved water were provided ad libitum.
(§3) Animals were controlled daily for clinical symptoms and detection of adverse effects. For monitoring throughout the experiment body weight of animals was documented.
(§4) Animal treatment started after randomisation when median tumor size was about 100 mm^3. The vehicle was administered ip once daily (QD) on D14-28. BET inhibitor RG6146 ip treatment at 30 mg/kg was done as single agent and in combination on D14-28. Finally, proteasome inhibitor bortezomib was given i.v. at 0.5 mg/kg as single agent and in combination twice a week for two weeks.
(§5) MM1s human MM cells were s.c. inoculated with Matrigel onto female CIEA-NOG mice. Tumor bearing mice were randomized 14 days later to the indicated study groups and compound treatment initiated. Tumor bearing animals were treated with vehicle control, with the BET inhibitor RG6146 at 30 mg/kg or with proteasome inhibitor bortezomib at 0.5 mg/kg as single agent and in combination thereof.

OPM-2 MM xenografts = experiment: In vivo antitumor efficacy against OPM-2 MM xenografts; conditions: Day 31, s.c. OPM-2 xenografts in female Scid beige mice, bortezomib 0.5 mg/kg iv 2xQ7D; for Tumor Regression % / TGI % (Tumor growth inhibition): RG6146 30 mg/kg ip QD D17-31; for TGI % (Tumor growth inhibition): vs control; for npTCR (non-parametric Treatment to Control Ratio) / Tumor free animal (complete tumor remission): RG6146 30 mg/kg ip QD; for npTCR (non-parametric Treatment to Control Ratio): CI printed in the lines below; for Tumor free animal (complete tumor remission): animals tumor free / group
Procedure: The in vivo antitumor efficacy of BET inhibitor RG6146 in combination with proteasome inhibitor bortezomib was evaluated against OPM-2 MM xenografts.
as §1, with “OPM-2” for “MM1s”
as §2, with “Scid beige” for “CIEA NOG”, “(Charles River),” for “(Taconic),”, “6-7” for “5-6”
as §3
as §4, with “115” for “100”, “D17-31.” for “D14-28.”
as §5, with “OPM-2 human” for “MM1s human”, “female Scid beige” for “female CIEA-NOG”, “randomized 17” for “randomized 14”

Structure (SMILES) | Tumor Regression % (MM1S MM xenografts) | TGI % (Tumor growth inhibition) (MM1S MM xenografts) | npTCR (non-parametric Treatment to Control Ratio) (MM1S MM xenografts) | Tumor Regression % (OPM-2 MM xenografts) | TGI % (Tumor growth inhibition) (OPM-2 MM xenografts) | npTCR (non-parametric Treatment to Control Ratio) (OPM-2 MM xenografts) | Tumor free animal (complete tumor remission) (OPM-2 MM xenografts)
CC(C)C[C@H](NC(=O)[C@H](Cc1ccccc1)NC(=O)c1cnccn1)B(O)O [bortezomib, [(1R)-3-methyl-1-[[(2S)-3-phenyl-2-(pyrazine-2-carbonylamino)propanoyl]amino]butyl]boronic acid, reference compound] | 0% | 29% | 0.75 | 0% | 60% | 0.34 | 0/10
Cc1sc2c(c1C)C(c1ccc(Cl)cc1)=N[C@@H](CC(=O)NCCCN1CCN(C)CC1)c1nnc(C)n1-2 [RG6146, 2-[(S)-4-(4-chloro-phenyl)-2,3,9-trimethyl-6H-1-thia-5,7,8,9a-tetraaza-cyclopenta[e]azulen-6-yl]-N-[3-(4-methyl-piperazin-1-yl)-propyl]-acetamide] | 0% | 83% | 0.29 | 85% | >100% | 0.008 | 5 out of 10 and 5/10
